Experimental data published in patent publication US5663162A, “Cephem derivatives” (priority 1993, dated 1997).
In brackets after ≈: the same amount, converted by molar mass. Like-named read-outs stand apart in the source and are kept apart here.

What was measured:
Test in all cases: Antibacterial activity test, MIC by two-fold dilution method
C. freundii GN346/16 = assay type: cell-based; conditions: Citrobacter freundii
Protocol: (§1) The measurement was carried out in the following manner: 10^6 CFU/ml of a bacterium to be tested was inoculated on a Medium N for disc susceptibility test (manufactured by Nissui Pharmaceutical Co., Ltd.), and cultivated at 35° C. for 18 to 20 hours.

E. cloacae G-0008 = assay type: cell-based; conditions: Enterobacter cloacae, G0008; E. cloacae G-0008; 10^6 CFU/ml, 35° C., 18 to 20 hours; read-out: Minimum Inhibition Concentration
Protocol: as §1

E. coli NIHJ JC-2 = assay type: cell-based; conditions: Escherichia coli, NIHJJC2; E. coli NIHJ JC-2; 10^6 CFU/ml, 35° C., 18 to 20 hours; read-out: Minimum Inhibition Concentration
Protocol: as §1

K. pneumoniae PC1602 = assay type: cell-based; conditions: Klebsiella pneumoniae; K. pneumoniae PC1602; 10^6 CFU/ml, 35° C., 18 to 20 hours; read-out: Minimum Inhibition Concentration
Protocol: as §1

M. morganii 1510/S-1 = assay type: cell-based; conditions: Morganella morganii
Protocol: as §1

P. aeruginosa E-2 = assay type: cell-based; conditions: Pseudomonas aeruginosa, E2; P. aeruginosa E-2; 10^6 CFU/ml, 35° C., 18 to 20 hours; read-out: Minimum Inhibition Concentration
Protocol: as §1

P. aeruginosa GN10362 = assay type: cell-based; conditions: Pseudomonas aeruginosa
Protocol: as §1

P. vulgaris GN76 = assay type: cell-based; conditions: Proteus vulgaris
Protocol: as §1

S. Aureus 209P JC-1 = assay type: cell-based; conditions: Staphylococcus aureus, read-out: Minimum Inhibition Concentration
Protocol: as §1

S. epidermidis ATCC14990 = assay type: cell-based; conditions: Staphylococcus epidermidis
Protocol: as §1

S. marcescens No. 1 = assay type: cell-based; conditions: Serratia marcescens
Protocol: as §1

S. Aureus 126 = assay type: cell-based, Staphylococcus aureus (methicillin-resistant, MRSA); conditions: Staphylococcus aureus; S. Aureus 126 (MRSA); 10^6 CFU/ml, 35° C., 18 to 20 hours; read-out: Minimum Inhibition Concentration
Protocol: as §1

S. Aureus 133 = assay type: cell-based, Staphylococcus aureus (methicillin-resistant, MRSA); conditions: Staphylococcus aureus, read-out: Minimum Inhibition Concentration
Protocol: as §1

[1] = C. freundii GN346/16, 10^6 CFU/ml, 35° C., 18 to 20 hours, read-out: Minimum Inhibition Concentration
[2] = P. aeruginosa GN10362, 10^6 CFU/ml, 35° C., 18 to 20 hours, read-out: Minimum Inhibition Concentration
[3] = P. vulgaris GN76, 10^6 CFU/ml, 35° C., 18 to 20 hours, read-out: Minimum Inhibition Concentration
[4] = S. epidermidis ATCC14990, 10^6 CFU/ml, 35° C., 18 to 20 hours, read-out: Minimum Inhibition Concentration
[5] = S. Aureus 133 (MRSA), 10^6 CFU/ml, 35° C., 18 to 20 hours
[6] = 1510/S1, M. morganii 1510/S-1, 10^6 CFU/ml, 35° C., 18 to 20 hours, read-out: Minimum Inhibition Concentration
[7] = ATCC14990, read-out: Minimum Inhibition Concentration
[8] = S. marcescens No. 1, 10^6 CFU/ml, 35° C., 18 to 20 hours, read-out: Minimum Inhibition Concentration
[9] = GN76, read-out: Minimum Inhibition Concentration

Compound `Nc1nc(/C(=N/OC2CCCC2)C(=O)N[C@@H]2C(=O)N3C(C(=O)[O-])=C(C[n+]4cc5sccn5c4)CS[C@H]23)ns1` [Example 112, (6R,7R)-7-[(Z)-2-(5-Amino-1,2,4-thiadiazol-3-yl)-2-cyclopentyl-oxyiminoacetamide]-3-(imidazo[5,1-b]thiazolium-6-yl)methyl-3-cephem-4-carboxylate] has an MIC (C. freundii GN346/16; [1]) of 0.78 µg/mL (≈ 1.36 µM), an MIC (E. cloacae G-0008) of 0.78 µg/mL (≈ 1.36 µM) and an MIC (E. coli NIHJ JC-2) of 0.78 µg/mL (≈ 1.36 µM). For the same compound, the MIC (K. pneumoniae PC1602) was 0.78 µg/mL (≈ 1.36 µM), the MIC (M. morganii 1510/S-1; 1510/S1, read-out: Minimum Inhibition Concentration) was 0.39 µg/mL (≈ 0.679 µM) and the MIC (P. aeruginosa E-2) was 3.13 µg/mL (≈ 5.45 µM). The MIC (P. aeruginosa GN10362; [2]) was 3.13 µg/mL (≈ 5.45 µM), the MIC (P. vulgaris GN76; [3]) was 3.13 µg/mL (≈ 5.45 µM) and the MIC (S. Aureus 209P JC-1; 209P) was 0.39 µg/mL (≈ 0.679 µM). It also gave an MIC (S. epidermidis ATCC14990; [4]) of 0.2 µg/mL (≈ 0.348 µM), an MIC (S. marcescens No. 1; NO.1, read-out: Minimum Inhibition Concentration) of 1.56 µg/mL (≈ 2.71 µM) and an MIC (S. Aureus 126) of 3.13 µg/mL (≈ 5.45 µM). For the same compound, the MIC (S. Aureus 133; [5]) was 3.13 µg/mL (≈ 5.45 µM).

Compound `C[C@H](O/N=C(\C(=O)N[C@@H]1C(=O)N2C(C(=O)[O-])=C(C[n+]3cc4sccn4c3)CS[C@H]12)c1csc(N)n1)C(=O)O` [Example 2, (6R,7R)-7-[(Z)-2-(2-Aminothiazol-4-yl)-2-((S)-l-carboxyethoxy-imino)acetamide]-3-(imidazo[5,1-b]thiazolium-6-yl)methyl-3-cephem-4-carboxylate] has an MIC (C. freundii GN346/16; GN346, read-out: Minimum Inhibition Concentration) of 0.39 µg/mL (≈ 0.675 µM), an MIC (E. cloacae G-0008) of 0.05 µg/mL (≈ 0.0866 µM) and an MIC (E. coli NIHJ JC-2) of 0.05 µg/mL (≈ 0.0866 µM). For the same compound, the MIC (K. pneumoniae PC1602) was at most 0.025 µg/mL, the MIC (M. morganii 1510/S-1; [6]) was at most 0.025 µg/mL and the MIC (P. aeruginosa E-2) was 0.78 µg/mL (≈ 1.35 µM). It also gave an MIC (P. aeruginosa GN10362; [2]) of 0.78 µg/mL (≈ 1.35 µM), an MIC (P. vulgaris GN76; [3]) of at most 0.025 µg/mL and an MIC (S. Aureus 209P JC-1; 209P) of 6.25 µg/mL (≈ 10.8 µM). It also gave an MIC (S. epidermidis ATCC14990; [7]) of 6.25 µg/mL (≈ 10.8 µM), an MIC (S. marcescens No. 1; [8]) of at most 0.025 µg/mL and an MIC (S. Aureus 126) of over 100 µg/mL. For the same compound, the MIC (S. Aureus 133; [5]) was 100 µg/mL (≈ 173 µM).

`NC(=O)c1csc2c[n+](CC3=C(C(=O)[O-])N4C(=O)[C@@H](NC(=O)/C(=N\OCCF)c5nsc(N)n5)[C@H]4SC3)cn12` [Example 48, (6R,7R)-7-[(Z)-2-(5-Amino-2,4-thiadiazol-3-yl)-2-(2-fluoroethoxyimino)acetamide]-3-(3-carbamoylimidazo[5,1-b]thiazolium-6-yl)methyl-3-cephem-4-carboxylate] gave an MIC (C. freundii GN346/16; [1]) of 0.1 µg/mL (≈ 0.168 µM), an MIC (E. cloacae G-0008) of at most 0.025 µg/mL and an MIC (E. coli NIHJ JC-2) of at most 0.025 µg/mL. For the same compound, the MIC (K. pneumoniae PC1602) was at most 0.025 µg/mL, the MIC (M. morganii 1510/S-1; [6]) was at most 0.025 µg/mL and the MIC (P. aeruginosa E-2) was 0.78 µg/mL (≈ 1.31 µM). For the same compound, the MIC (P. aeruginosa GN10362; [2]) was 0.78 µg/mL (≈ 1.31 µM), the MIC (P. vulgaris GN76; [3]) was 0.2 µg/mL (≈ 0.336 µM) and the MIC (S. Aureus 209P JC-1; 209P) was 0.39 µg/mL (≈ 0.655 µM). For the same compound, the MIC (S. epidermidis ATCC14990; [7]) was 0.39 µg/mL (≈ 0.655 µM), the MIC (S. marcescens No. 1; [8]) was at most 0.025 µg/mL and the MIC (S. Aureus 126) was 12.5 µg/mL (≈ 21 µM). The MIC (S. Aureus 133; MRSA) was 6.25 µg/mL (≈ 10.5 µM).

For `CO/N=C(\C(=O)N[C@@H]1C(=O)N2C(C(=O)[O-])=C(C[n+]3cc4sccn4c3CO)CS[C@H]12)c1nsc(N)n1` [Example 31], the MIC (C. freundii GN346/16; [1]) was 0.1 µg/mL (≈ 0.182 µM), the MIC (E. cloacae G-0008) was 0.05 µg/mL (≈ 0.0908 µM) and the MIC (E. coli NIHJ JC-2) was at most 0.025 µg/mL. It also gave an MIC (K. pneumoniae PC1602) of 0.05 µg/mL (≈ 0.0908 µM), an MIC (M. morganii 1510/S-1; [6]) of 0.05 µg/mL (≈ 0.0908 µM) and an MIC (P. aeruginosa E-2) of 3.13 µg/mL (≈ 5.68 µM). For the same compound, the MIC (P. aeruginosa GN10362; [2]) was 3.13 µg/mL (≈ 5.68 µM), the MIC (P. vulgaris GN76; [9]) was 0.39 µg/mL (≈ 0.708 µM) and the MIC (S. Aureus 209P JC-1; S. Aureus 209P JC-1, 10^6 CFU/ml, 35° C., 18 to 20 hours) was 0.78 µg/mL (≈ 1.42 µM). For the same compound, the MIC (S. epidermidis ATCC14990; [4]) was 0.78 µg/mL (≈ 1.42 µM), the MIC (S. marcescens No. 1; [8]) was 0.05 µg/mL (≈ 0.0908 µM) and the MIC (S. Aureus 126) was 12.5 µg/mL (≈ 22.7 µM). The MIC (S. Aureus 133; MRSA) was 6.25 µg/mL (≈ 11.4 µM).

`CO/N=C(\C(=O)N[C@@H]1C(=O)N2C(C(=O)[O-])=C(C[n+]3cc4sccn4c3)CS[C@H]12)c1nsc(N)n1` [Example 30, (6R,7R)-7-[(Z)-2-(5-Amino-1,2,4-thiadiazol-3-yl)-2-methoxyiminoacetamide]-3-(imidazo [5, l-b]thiazolium-6-yl)methyl-3-cephem-4-carboxylate] gave an MIC (C. freundii GN346/16; [1]) of 0.1 µg/mL (≈ 0.192 µM), an MIC (E. cloacae G-0008) of 0.05 µg/mL (≈ 0.096 µM) and an MIC (E. coli NIHJ JC-2) of 0.05 µg/mL (≈ 0.096 µM). It also gave an MIC (K. pneumoniae PC1602) of 0.05 µg/mL (≈ 0.096 µM), an MIC (M. morganii 1510/S-1; [6]) of 0.1 µg/mL (≈ 0.192 µM) and an MIC (P. aeruginosa E-2) of 3.13 µg/mL (≈ 6.01 µM). For the same compound, the MIC (P. aeruginosa GN10362; GN10362, read-out: Minimum Inhibition Concentration) was 1.56 µg/mL (≈ 3 µM), the MIC (P. vulgaris GN76; [9]) was 0.39 µg/mL (≈ 0.749 µM) and the MIC (S. Aureus 209P JC-1; 209P) was 0.39 µg/mL (≈ 0.749 µM). The MIC (S. epidermidis ATCC14990; [7]) was 0.39 µg/mL (≈ 0.749 µM), the MIC (S. marcescens No. 1; [8]) was 0.05 µg/mL (≈ 0.096 µM) and the MIC (S. Aureus 126) was 25 µg/mL (≈ 48 µM). The MIC (S. Aureus 133; [5]) was 12.5 µg/mL (≈ 24 µM).
